# Results published in US20210299111A1, “EIF4A INHIBITOR COMBINATIONS” (eFFECTOR Therapeutics Inc., priority 2020, published 2021).
# Tests used:
# [1] = test system: MDA-MB-361 ER^+ breast cancer cells; experiment: MDA-MB-361 xenograft tumor growth in athymic mice; type: in vivo; settings: eFT226 0.1 mg/kg intravenously Q4D, palbociclib 30 mg/kg orally QD, 18 days, tumor volume followed up to 45 days after last dose, FIG. 3
# Method: The in vivo effect of a combination treatment using eFT226 and palbociclib on the tumor growth of MDA-MB-361 ER^+ breast cancer cells was tested. Xenograft experiments were performed by implanting MDA-MB-361 ER^+ breast cancer cells into athymic mice. Athymic mice implanted with MDA-MB-361 tumor cells were randomized and size-matched into vehicle and treatment groups when the mean tumor size reached ˜300 mm^3. The mice were then treated with (1) control vehicle; (2) 0.1 mg/kg of eFT226 administered intravenously every 4 days (Q4D) for a period of 18 days; (3) 30 mg/kg of palbociclib administered orally every day (QD) for a period of 18 days; or (4) 0.1 mg/kg of eFT226 administered intravenously Q4D and 30 mg/kg of palbociclib administered orally QD for a period of 18 days. The effect on the above treatments on tumor volume was monitored. Tumor volume was measured periodically for up to 45 days after the last dose of treatment was administered. […] Administration of either eFT226 or palbociclib alone led to a inhibition of tumor growth for about 22 days after the treatment was stopped. […] It is unknown what factors determine the equilibrium between the CDK4/6 inhibitor-sensitive monomeric CDK4 and the drug resistant p27-CDK4-cyclin D1 trimer.
# [2] = test system: phosphorylated retinoblastoma (Rb) protein; experiment: Phosphorylated Rb protein in MDA-MB-361 ER+ breast cancer cells treated with eFT226; type: cell-based; settings: MDA-MB-361 cells; eFT226 10 nM, 30 nM, 100 nM; 24 hours; FIG. 1
# Method: (§1) The effect of eFT226 on key cell cycle regulators in MDA-MB-361 ER^+ breast cancer cells was tested. MDA-MB-361 ER^+ breast cancer cells were treated with varying concentrations of eFT226 (10 nM, 30 nM, and 100 nM) for 24 hours, and analyzed for the expression of the relevant key cell cycle regulators, cyclin D1, CDK4, and phosphorylated retinoblastoma (Rb) protein.
# [3] = test system: DLD1 (KRAS G13D) colorectal cancer cells; experiment: Cell viability (crystal violet) in KRAS mutant DLD1 cells; type: cell-based; settings: Palbociclib 100 nM, eFT226 10 or 50 nM, 24 hours, then Palbociclib alone for 13 days, FIG. 5
# Method: (§2) SW620 (KRAS G12V) colorectal cancer cells (FIG. 1), DLD1 (KRAS G13D) colorectal cancer cells (FIG. 2), and CORL23 (KRAS G12V) NSCLC cells (FIG. 3) were seeded at 500-1,000 cells/well in 6-well plates and treated with DMSO control (“DMSO”), Palbociclib (100 nM) (“Palbo”), eFT226 (10 or 50 nM), or the combination of the two drugs (“Palbo+eFT226). After 24 hours of treatment, cells were rinsed and treatment with Palbociclib alone was continued for an additional 13 days. At the end of treatment, cells were rinsed with phosphate buffered saline (PBS) and stained with crystal violet.
# [4] = test system: MDA-MB-361 ER^+ breast cancer cells; experiment: Cell viability of MDA-MB-361 cells, single agents and combination; type: cell-based; settings: Palbociclib 40 nM, eFT226 45 nM, 24 hours, then Palbociclib only for 6 days, versus untreated control, FIG. 2
# Method: MDA-MB-361 ER^+ breast cancer cells were seeded at 10,000 cells/well in 24-well plates and treated with DMSO (“control”), Palbociclib (40 nM)(“Palbo”), eFT226 (45 nM) (“eFT226”), or the combination of the two drugs (“Combo”). After 24 hours of treatment, cells were rinsed and treatment with Palbociclib only was continued for 6 days, at which time cell viability was determined. Cells were counted on day 0 and day 6, when the experiment was ended.
# [5] = test system: SW620 (KRAS G12V) colorectal cancer cells; experiment: Cell viability (crystal violet) in KRAS mutant SW620 cells; type: cell-based; settings: Palbociclib 100 nM, eFT226 10 or 50 nM, 24 hours, then Palbociclib alone for 13 days, FIG. 4
# Method: as §2
# cyclin D1 = experiment: Expression of cyclin D1 in MDA-MB-361 ER+ breast cancer cells treated with eFT226; type: cell-based; settings: MDA-MB-361 cells, 24 hours, FIG. 1
# Method: as §1
# CDK4 = experiment: Expression of CDK4 in MDA-MB-361 ER+ breast cancer cells treated with eFT226; type: cell-based; settings: MDA-MB-361 cells; eFT226 10 nM, 30 nM, 100 nM; 24 hours; FIG. 1
# Method: as §1
# [6] = test system: CORL23 (KRAS G12V) NSCLC cells; experiment: Cell viability (crystal violet) in KRAS mutant CORL23 cells; type: cell-based; settings: Palbociclib 100 nM, eFT226 10 or 50 nM, 24 hours, then Palbociclib alone for 13 days, FIG. 6
# Method: as §2
SMILES,duration of inhibition of tumor growth after the last dose [1],phosphorylated Rb protein [2],cell viability [3],cell viability [4],cell viability [5],decrease of Cyclin D1 protein levels compared with Fulvestrant (cyclin D1),"cyclin D1 expression (cyclin D1; eFT226 10 nM, 30 nM, 100 nM)",CDK4 expression (CDK4),cell viability [6]
"CC(=O)c1c(C)c2cnc(Nc3ccc(N4CCNCC4)cn3)nc2n(C2CCCC2)c1=O [palbociclib, reference compound]",about 22 days,,,,,,,,
COc1cc2c(c(OC)n1)[C@]1(O)[C@H](O)[C@H](CN(C)C)[C@@H](c3ccccc3)[C@]1(c1ccc(C#N)cc1)O2 [eFT226],about 22 days,concomitant decrease in phosphorylated Rb protein,reduced,reduced,reduced,more effective than Fulvestrant (Fulv) in decreasing Cyclin D1 protein levels,suppression of cyclin D1 and CDK4 expression was observed in the cell line at all concentrations,suppression of cyclin D1 and CDK4 expression was observed in the cell line at all concentrations,reduced
